Test results taken from patent US20240261294A1, “METHOD FOR TREATING IDH INHIBITOR-RESISTANT SUBJECTS” (Eli Lilly and Company, priority 2021, published 2024).
Changes are numbered by the printed parent chain. Where two headings read alike, the source gives them in different places.

How the values were obtained:
IDH2 R140L_Q316E trans = target: T1, IDH2 R140L_Q316E trans (Homo sapiens, UniProt P48735, Q316E/R140L); experiment: Inhibition of 2-HG production in IDH2 mutant U-87 MG cells; type: cell-based; conditions: 16 hours incubation, 50K cells/well, 100 μl media/well, read-out: Relative IC50 (nM) Mean, inhibition of 2-HG production
T1 construct: expressed in transfected cells; host or cells: U-87 MG
T1 sequence (P48735 40-452 R140L): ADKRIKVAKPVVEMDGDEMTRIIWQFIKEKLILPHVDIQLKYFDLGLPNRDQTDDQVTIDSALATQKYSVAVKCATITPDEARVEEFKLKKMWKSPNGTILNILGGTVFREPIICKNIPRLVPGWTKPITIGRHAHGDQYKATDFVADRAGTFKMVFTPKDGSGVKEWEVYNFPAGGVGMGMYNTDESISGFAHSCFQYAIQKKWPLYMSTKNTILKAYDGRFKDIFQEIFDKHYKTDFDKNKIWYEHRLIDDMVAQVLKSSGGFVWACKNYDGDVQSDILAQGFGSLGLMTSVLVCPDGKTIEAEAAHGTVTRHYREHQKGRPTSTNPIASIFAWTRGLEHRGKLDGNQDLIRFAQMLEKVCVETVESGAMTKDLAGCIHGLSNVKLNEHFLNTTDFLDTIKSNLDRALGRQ
T1 sequence (P48735 40-452 Q316E): T1 sequence (P48735 40-452 R140L) with L101R, Q277E
Protocol: (§1) Compounds and Formulation. Compound A may be synthesized as described in WO/18/111707. Compound A is prepared as a 20 mM stock in 100% DMSO (dimethyl sulfoxide) (Sigma, D2438) and diluted serially in 100% DMSO to achieve the desired concentrations. DMSO preparations are further diluted with cell culture media prior to addition in the assay.
(§2) Cell lines. U-87 MG cells (ATCC, HTB-14) are cultured and assayed in MEM (Gibco, 11095) with 2 mM GlutaMAX (Gibco, 35050), 1 mM Pyruvate (Gibco, 11360), 0.1 mM NEAA ((Non-essential amino acid) Gibco, 11140) and 10% dialyzed FBS (Fetal bovine serum) (Gibco, 26400).
(§3) Cell-based inhibition assays. Cell-based assays are performed by measuring 2-HG in U-87 MG cells in which IDH2 mutations are expressed.
(§4) DNA constructs encoding IDH2 mutations are introduced into U-87 MG cells using transfection (Promega FuGENE HD, E2311) or lentiviral transduction, and the IDH2-mutant expressing cell lines are selected using blasticidin (5 μg/ml) or puromycin (1 μg/ml). Second site mutations (Q316E, I319M, P167R, and G260A) are evaluated in cis (same monomer as driver mutation within dimer) or in trans (opposite monomer from driver mutation in dimer). For compound treatments, 12,500 or 50,000 cells per well in culture medium (150 μl or 100 μl, respectively) are plated in 96 well cell culture plates (Falcon, 353377) 2 hrs prior to treatment. Cells are treated with serial dilutions of compound A in standard growth media. Plates are incubated in a mammalian cell culture incubator (humidified, 37° C., 5% CO2) for 16 or 72 hrs. Following the incubation period, the media is aspirated and cell extracts are prepared by addition of ice-cold 80% methanol/20% water (100 μL) containing liquid chromatography-mass spectrometry (LC-MS) internal standards (1 μM ^13C4 α-KG and ^13C5 2-HG) per well for ion pairing LC-MS method. 96-well sample plates are then sealed, shaken at 450 rpm for 10 min, and then placed at −20° C. and stored until LC-MS analysis.
(§5) LC-MS metabolite analysis of conditioned media and cell lysates. The effect of inhibitors on the concentrations of 2-HG are determined by LC-MS analysis of cell lysates using an ion-pairing method as described below.
(§6) Calibration curves are prepared by spiking 2-HG and α-KG into 80% methanol/20% water containing LC-MS internal standards (1 μM ^13C4 α-KG and 1 μM ^13C5 2-HG). The quantitation of 2-HG and α-KG is accomplished using an AB Sciex 6500 mass spectrometer with an Electrospray Ionization (ESI) probe and interfaced with an Ultra Performance Liquid Chromatography (UHPLC) system in the negative multiple-reaction monitoring (MRM) mode. The UHPLC system consists of an Agilent 1290 binary pump, thermostatted column compartment (TCC), and sampler. The injection volume is 1 μL for cell culture extracts. The extracts are chromatographically resolved using a Hypercarb column, 2.1×20 mm, […] Javelin HTS (Thermo Scientific, PN: 35005-022135). Mobile phase A is water/10 mM tributylamine/15 mM acetic acid. Mobile phase B is acetonitrile/20 mM tributylamine/30 mM acetic acid. The solvent flow rate is 1.0 mL/min. The isocratic condition is kept at 26% mobile phase B. The valve, sample loop, and needle are washed with 50% acetonitrile: 50% methanol for 20 seconds. The column temperature is kept at 55° C. Calibration curves are calculated by least-square linear regression with 1/x weighting. 2-HG and α-KG are quantified using standard curve and ratio of the peak area of analytes to internal standard. Data analysis is performed using MultiQuant 3.0 (AB Sciex). The raw data are exported to Microsoft Excel spreadsheets.
(§7) Determination of IC50 Curves. IC50 curves for each compound are obtained using four parameter data fitting analysis in GraphPad/Prism software.

IDH2 R140Q_P167R cis = target: T2, IDH2 R140Q_P167R cis (Homo sapiens, UniProt P48735, P167R/R140Q); experiment: as above; type: cell-based; conditions: read-out: Relative IC50 (nM) Mean, inhibition of 2-HG production
T2 construct: expressed in transfected cells; host or cells: U-87 MG
T2 sequence (P48735 40-452 R140Q/P167R): T1 sequence (P48735 40-452 R140L) with L101Q, P128R
Protocol: as §1, §2, §3, §4, §5, §6, §7

- IC50 (IDH2 R140L_Q316E trans): 262 nM
- IC50 (IDH2 R140Q_P167R cis; 16 hours incubation, 50K cells/well, 100 μl media/well): 639 nM
- IC50 (IDH2 R140Q_P167R cis; 72 hours incubation, 12.5K cells/well): 104 nM
SMILES: C=CC(=O)N1CCN([C@@H](CC2CC2)c2ccc([C@H](C)Nc3ncc4c(n3)N(CC)C(=O)OC4)cc2)CC1 [Compound A, 7-[[(1S)-1-[4-[(1S)-2-cyclopropyl-1-(4-prop-2-enoylpiperazin-1-yl)ethyl]phenyl]ethyl]amino]-1-ethyl-4H-pyrimido[4,5-d][1,3]oxazin-2-one]
